Measurements: ChEMBL document CHEMBL1130647, “Synthesis and in vitro cytotoxicity of 3-substituted-1,8-diazaanthraquinones produced by Lewis-acid catalyzed hetero Diels-Alder reaction” (Bioorg Med Chem Lett, 1998)

Tests used:
Type in all cases: functional, cell-based
Settings in all cases: Homo sapiens
[1] = test system: HCT-15; test: In vitro cytotoxic activity against HCT15 (colon cancer) cell lines by using SRB assay
[2] = test system: HOP-62; test: In vitro cytotoxic activity against HOP62 (lung cancer) cell lines by using SRB assay
[3] = test system: SF-295; test: In vitro cytotoxic activity against SF-295 (CNS carcinoma) cell lines by using SRB assay
[4] = test system: SK-OV-3; test: In vitro cytotoxic activity against SK-OV-3 (ovarian carcinoma) cell lines by using SRB assay

| Compound | IC50 [1] [nM] | IC50 [2] [nM] | IC50 [3] [nM] | IC50 [4] [nM] |
| --- | --- | --- | --- | --- |
| O=C1c2cccnc2C(=O)c2ncc(CO)cc21 | 400 | 100 | 300 | 200 |
| O=C1c2cccnc2C(=O)c2ncc(CBr)cc21 | 400 | 55 | 500 | 300 |
| COc1cccc2c1C(=O)c1c(O)c3c(c(O)c1C2=O)C[C@@](O)(C(=O)CO)C[C@@H]3O[C@H]1C[C@H](N)[C@H](O)[C@H](C)O1 [DOXORUBICIN] | 100 | 4 | 35 | 20 |
| Cc1cnc2c(c1)C(=O)c1cccnc1C2=O | 350 | 15 | 250 | 40 |
| CC(C)NC(=O)OCc1cnc2c(c1)C(=O)c1cccnc1C2=O | 20 | 6 | 100 | 20 |
